One test has as its system HeLa S-3 cells. In words: HeLa GI50 determination (SRB growth inhibition). It counts as cell-based, human. The following applies: Homo sapiens, HeLa S3, 48 h, read-out: HeLa Cells GI50 (nM). The protocol:
Growth inhibition (GI50) values were measured on the human cervical carcinoma cell line, HeLa S-3, which were selected for growth on plastic. The HeLa cell assay was based on the description of Skehan et al., J. Natl. Cancer Inst., 82:1107-12 (1990), which is hereby incorporated by reference in its entirety. HeLa cells were plated at 2×10^4 cells/well in 96 well plates. One day later, a control plate was fixed by the addition of TCA to 5%. After five rinses with tap water, the plate was air-dried and stored at 4° C. Test compounds were added to the remaining plates at 10-fold dilutions. Two days later, all plates were fixed as described above. Cells were then stained by the addition of 100 μL per well of 0.4% sulforhodamine B (SRB) in 1% acetic acid for 30 min at 4° C. Wells were then quickly rinsed 5× with 1% acetic acid and allowed to air dry. The SRB was then solubilized by the addition of 100 μL per well of unbuffered 10 mM Tris base. Dye was quantified by measuring absorbance at 490 nm on a Molecular Devices microplate reader. Growth inhibition was calculated according to the following equation: GI=100×(T−T0)/(C−T0), where the optical density (OD) of the test well after 2 days of treatment was T, the OD of the wells in the control plate on day 0 was T0 and C was the OD of untreated wells. Plots of percent growth inhibition versus inhibitor concentration were used to determine the GI50.

Another test has as its system MCF-7 cells. In words: MCF-7 GI50 determination (crystal violet growth inhibition). The test is classed as cell-based, human. The following applies: Homo sapiens, MCF7, 96 h, read-out: MCF-7 Cells GI50 (nM). The procedure: Growth inhibition (GI50) values were measured on the human breast carcinoma line, MCF-7. MCF-7 cells were plated at 2×10^4 cells/well in 96 well plates and grown for 24 hours in drug free media. On day 2, test compounds were added to the plates at 10-fold dilutions. Four days later, cells were fixed by the addition of glutaraldehyde to 0.75%. After 30 min, the fixed cells were extensively rinsed with distilled water and dried at room temperature for one hour. The cells were then stained with a 0.2% crystal violet solution for one hour at room temperature. Unbound stain was removed by ten rinses with tap water and plates were allowed to air dry for 30 min. The crystal violet was then solubilized by the addition of 10% acetic acid for 15 min and quantified by measuring absorbance at 570 nm on a Molecular Devices microplate reader. Growth inhibition was calculated according to the following equation: GI=[…], where the optical density (OD) of the test well after 4 days of treatment was T, the OD of the wells in the control plate on day 0 was T0. Plots of percent growth inhibition versus inhibitor concentration were used to determine the GI50.

Some results are limits rather than exact numbers.

Turning to `CC[C@]1(O)C[C@H]2CN(CCc3c([nH]c4ccc(-c5ccccc5)cc34)[C@@](C(=O)OC)(c3cc4c(cc3OC)N(C=O)[C@H]3[C@@](O)(C(=O)OC)[C@H](OC(C)=O)[C@]5(CC)C=CCN6CC[C@]43[C@@H]65)C2)C1` [Example 5, 12′-phenylvincristine], the GI50 in the test on HeLa S-3 cells is 50 nM; in the test with MCF-7 cells, 30 nM.

For `CC[C@]1(O)C[C@H]2CN(CCc3c([nH]c4ccc(-c5ccccc5)cc34)[C@@](C(=O)OC)(c3cc4c(cc3OC)N(C)[C@H]3[C@@](O)(C(=O)OC)[C@H](OC(C)=O)[C@]5(CC)C=CCN6CC[C@]43[C@@H]65)C2)C1` [Example 6, 12′-phenylvinblastine], the GI50 in the test on HeLa S-3 cells was 400 nM; in the test on MCF-7 cells, 300 nM.

With `CC[C@]1(O)C[C@H]2CN(CCc3c([nH]c4ccc(-c5ccc(OC)cc5)cc34)[C@@](C(=O)OC)(c3cc4c(cc3OC)N(C=O)[C@H]3[C@@](O)(C(=O)OC)[C@H](OC(C)=O)[C@]5(CC)C=CCN6CC[C@]43[C@@H]65)C2)C1` [Example 7, 12′-(4-methoxyphenyl) vincristine], the concentration for 50% growth inhibition (GI50) worked out at 400 nM in the test with HeLa S-3 cells and 100 nM in the test with MCF-7 cells.

Take `CC[C@]1(O)C[C@H]2CN(CCc3c([nH]c4ccc(-c5cccc(OC)c5)cc34)[C@@](C(=O)OC)(c3cc4c(cc3OC)N(C)[C@H]3[C@@](O)(C(=O)OC)[C@H](OC(C)=O)[C@]5(CC)C=CCN6CC[C@]43[C@@H]65)C2)C1` [Example 9, 12′-(3-methoxyphenyl) vinblastine]: the GI50 with HeLa S-3 cells is 300 nM; in the test with MCF-7 cells it was 500 nM.

Regarding `CC[C@]1(O)C[C@H]2CN(CCc3c([nH]c4ccc(-c5ccc(F)cc5)cc34)[C@@](C(=O)OC)(c3cc4c(cc3OC)N(C)[C@H]3[C@@](O)(C(=O)OC)[C@H](OC(C)=O)[C@]5(CC)C=CCN6CC[C@]43[C@@H]65)C2)C1` [Example 10, 12′-(4-fluorophenyl) vinblastine], the GI50 in the test with HeLa S-3 cells worked out at 250 nM; in the test with MCF-7 cells, 95 nM.

As to `CC[C@]1(O)C[C@H]2CN(CCc3c([nH]c4ccc(-c5cccc(F)c5)cc34)[C@@](C(=O)OC)(c3cc4c(cc3OC)N(C)[C@H]3[C@@](O)(C(=O)OC)[C@H](OC(C)=O)[C@]5(CC)C=CCN6CC[C@]43[C@@H]65)C2)C1` [Example 11, 12′-(3-fluorophenyl) vinblastine], the GI50 in the test on HeLa S-3 cells and with MCF-7 cells was 300 nM throughout.

For `CC[C@]1(O)C[C@H]2CN(CCc3c([nH]c4ccc(-c5cccc(O)c5)cc34)[C@@](C(=O)OC)(c3cc4c(cc3OC)N(C)[C@H]3[C@@](O)(C(=O)OC)[C@H](OC(C)=O)[C@]5(CC)C=CCN6CC[C@]43[C@@H]65)C2)C1` [Example 12, 12′-(3-hydroxyphenyl) vinblastine], the 50% growth inhibitory concentration (GI50) with HeLa S-3 cells came out at 200 nM; in the test on MCF-7 cells it was 300 nM.

With `CC[C@]1(O)C[C@H]2CN(CCc3c([nH]c4ccc(-c5cccnc5)cc34)[C@@](C(=O)OC)(c3cc4c(cc3OC)N(C)[C@H]3[C@@](O)(C(=O)OC)[C@H](OC(C)=O)[C@]5(CC)C=CCN6CC[C@]43[C@@H]65)C2)C1` [Example 13, 12′-(3-pyridyl) vinblastine], the GI50 was > 1000 nM with HeLa S-3 cells and 600 nM in the test with MCF-7 cells.

For the compound `CC[C@]1(O)C[C@H]2CN(CCc3c([nH]c4ccc(-c5ccsc5)cc34)[C@@](C(=O)OC)(c3cc4c(cc3OC)N(C)[C@H]3[C@@](O)(C(=O)OC)[C@H](OC(C)=O)[C@]5(CC)C=CCN6CC[C@]43[C@@H]65)C2)C1` [Example 14, 12′-(3-thienyl) vinblastine], the concentration for 50% growth inhibition (GI50) with HeLa S-3 cells and in the test with MCF-7 cells was 300 nM in each case.

In the case of `CC[C@]1(O)C[C@H]2CN(CCc3c([nH]c4ccc(-c5nccs5)cc34)[C@@](C(=O)OC)(c3cc4c(cc3OC)N(C)[C@H]3[C@@](O)(C(=O)OC)[C@H](OC(C)=O)[C@]5(CC)C=CCN6CC[C@]43[C@@H]65)C2)C1` [Example 15, 12′-(2-thiazolyl) vinblastine], the GI50 in the test on HeLa S-3 cells came out at 200 nM; with MCF-7 cells it was 100 nM.

These data come from patent US7745619B2, “Vinca derivatives” (priority 2003, dated 2010).
